For test [1], the target named is T1, angiotensin II receptor (angiotensin II-induced vasoconstriction in in vitro aortic rings) (Oryctolagus cuniculus, UniProt P34976).
T1 construct: thoracic aorta gently dissected free from the aortic root to the level of the diaphragm; from tissue; host or cells: rabbit (New Zealand white) thoracic aorta rings
T1 sequence (P34976 1-359): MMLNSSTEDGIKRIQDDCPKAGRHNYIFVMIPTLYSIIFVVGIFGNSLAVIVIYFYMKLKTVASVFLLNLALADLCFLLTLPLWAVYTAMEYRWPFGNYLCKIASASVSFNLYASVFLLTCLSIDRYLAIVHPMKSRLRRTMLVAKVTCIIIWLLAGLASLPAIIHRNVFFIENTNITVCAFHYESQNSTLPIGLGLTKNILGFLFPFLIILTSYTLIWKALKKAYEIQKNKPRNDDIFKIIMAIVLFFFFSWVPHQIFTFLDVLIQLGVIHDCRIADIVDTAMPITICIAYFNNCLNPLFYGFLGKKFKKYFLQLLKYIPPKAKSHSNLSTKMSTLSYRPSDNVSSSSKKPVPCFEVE
The experiment in a line: Inhibition of Angiotensin II Dose-Response in Rabbit Thoracic Aorta. It is filed as cell-based, rabbit (New Zealand white). The following applies: for Kb / pA2: rabbit thoracic aorta, negative logarithm of antagonist concentration causing 2-fold shift to the right of agonist potency; for Kb: read-out: pA2 (converted); for inhibition at 10 µM: read-out: % Inhib. @ 10 uM. The text has this:
Inhibition of Angiotensin II Dose-Response in Rabbit Thoracic Aorta
Purpose: To identify competitive receptor antagonists of an angiotensin II-activity, 1 activity i.e., angiotensin II-induced vasoconstriction in in vitro aortic rings.
Procedure: 1.8 to 2.3 kg New Zealand white rabbits are sacrificed with an intravenous sodium pentobarbital overdose and the thoracic aorta gently dissected free from the aortic root to the level of the diaphragm, into ice cold Krebs bicarbonate buffer. The aorta is gently freed of clots and adventitia and cleanly cut with a scalpel into 5 mm segments. Each dng is suspended from a Gould isotonic force transducer in a tissue bath containing 15 mL oxygenated Krebs bicarbonate buffer regulated at 37° C. Initial tension is adjusted to 4.0 g and equilibrated over three 20-min wash periods to achieve a baseline tension of 3.0 g. Graded angiotensin II doses are given cumulatively to achieve a maximal contraction. Three 20-min washes are pedormed to remove the initial angiotensin II effect. The test compound is then given at a screening concentration of 1.0×10^-5 M. After observing any effects of the test compound alone, the angiotensin II cumulative dose-response is then repeated in the presence of the test compound.
Analysis: Angiotensin II vasoconstdctor tension in grams is expressed as a percent of maximal contraction for the before and after test compound angiotensin II dose-responses. Angiotensin II ED50 and ED90 is determined from the angiotensin II dose-response curves generated before and after test compound.
Controls: Test compounds are dissolved in DMSO vehicle and DMSO vehicle alone is tested in two rings as a vehicle control in each screening experiment.
pA2 is the negative logarithm of the antagonist concentration that causes a 2-fold shift to the right (i.e. decrease) in the potency of the agonist or the negative logarithm of the antagonist concentration that cuts the potency of the agonist in half.

For the next test, the system named is plasma renin activity. Nature of the test: Plasma renin activity (PRA, RIA) in salt-depleted rats. The class given is in vivo, rat (Sprague-Dawley). As to conditions: after DuP-753 treatment of salt-depleted rats, 0.7 before and about 7.4 after salt depletion.
The subject of a further test is angiotensin II receptor. Nature of the test: Screening Potential Angiotensin II Receptor Antagonists in Salt-Depleted Normotensive Rats (blood pressure). It is filed as in vivo, rat (Sprague-Dawley). Here is the method: Method; Male 350-450 g Sprague-Dawley rats are implanted with teflon microcannulae via the middle caudal artery under 20 mg/kg intravenous brevital anesthesia and permitted a 4-7 day surgical recovery period. Throughout recovery and testing animals are individually housed unrestrained in standard rat metabolism cages and receive continuous 0.5 ml/h intra-arterial 0.25N saline infusion through a spring-shielded swivelling tether connected to an infusion/blood pressure recording system to maintain arterial cannula patency. […] […] Three hours after the second furosemide dose, rats are given test compound uniformly suspended in 1% methylcellulose (n=3/dose level) or 1 mL 1% methylcellulose vehicle (n=3) orally by gavage and blood pressure is continuously recorded for 24 h using a Buxco computerized data recording system. Compound-induced changes in blood pressure are compared to concurrent vehicle control blood pressures in order to detect drug effect.
Interpretation: Prior to salt depletion, normotensive rats typically show a plasma renin activity (PRA, ng angiotensin I/mL plasma/h, RIA) of 0.7. After the salt-depletion protocol PRA values taken 3 h after the furosemide dose have risen to about 7.4.
Compounds that decrease blood pressure 10 or more mmHg (MAP) compared to concurrent control after oral dosing are considered active in this test. Maximum possible response is about -35 mmHg. […]

Results on 16 compounds are retold here after patent publication US5508419A, “Substituted triazoles as angiotensin II inhibitors” (Ortho Pharmaceutical Corporation, priority 1994, dated 1996).

In the case of `CCCCc1nc(SCc2ccc(-c3ccccc3C(=O)O)cc2)nn1Cc1ccc(-c2ccccc2C(=O)O)cc1` [Compound 2, Disodium 5-Butyl-1,3-bis-[4-(2'-carboxyphenyl)benzyl]mercapto-1,2,4-triazole], in test [1], the Kb is 3.24 nM and the inhibition at 10 µM worked out at 100%. Taken in the same sequence, the figures for `CC(C)Cc1nc(SCc2ccc(-c3ccccc3C(=O)O)cc2)nn1Cc1ccc(-c2ccccc2C(=O)O)cc1` [Compound 4, Sodium 5-isobutyl-1,3-bis-[4-(2'-carboxyphenyl)benzyl]mercapto-1,2,4-triazole] were 32.4 nM and 100%. Take `CCCCCc1nc(SCc2ccc(-c3ccccc3C(=O)O)cc2)nn1Cc1ccc(-c2ccccc2C(=O)O)cc1` [Compound 6, 5-Pentyl-1,3-bis-[4-(2'-carboxyphenyl)benzyl]mercapto-1,2,4-triazole]: in test [1], the pA2 is given as 8.39 and the inhibition at 10 µM turned out to be 100%.

Regarding `CCCCCCc1nc(SCc2ccc(-c3ccccc3C(=O)OC)cc2)nn1Cc1ccc(-c2ccccc2C(=O)OC)cc1` [Compound 8, 5-Hexyl-1,3-bis-[4-(2'-carbomethoxyphenyl)benzyl]mercapto-1,2,4-triazole], in test [1], the Kb is 11 nM and the inhibition at 10 µM amounted to 100%. `CCCCCCCc1nc(SCc2ccc(-c3ccccc3C(=O)OC)cc2)nn1Cc1ccc(-c2ccccc2C(=O)OC)cc1` [Compound 9, 5-Heptyl-1,3-bis-[4-(2'-carbomethoxyphenyl)benzyl]mercapto-1,2,4-triazole]: the inhibition at 10 µM in test [1] was found to be 2%. `CCCCCCCc1nc(SCc2ccc(-c3ccccc3C(=O)O)cc2)nn1Cc1ccc(-c2ccccc2C(=O)O)cc1` [Compound 10, 5-Heptyl-1,3-bis-[4-(2'-carboxyphenyl)benzyl]mercapto-1,2,4-triazole]: in test [1], the Kb is 186 nM and the inhibition at 10 µM amounted to 97%. As for `CCCCCc1nc(SCc2ccc(-c3ccccc3C#N)cc2)nn1Cc1ccc(-c2ccccc2C(=O)O)cc1` [Compound 12], the inhibition at 10 µM in test [1] was 79%. With `CCCCCc1nc(SCc2ccc(-c3ccccc3C(=O)OC)cc2)nn1Cc1ccc(-c2ccccc2-c2nn[nH]n2)cc1` [Compound 16, 3-[4-(2'-Carbomethoxyphenyl)benzyl]mercapto-5-pentyl-1-[4-(2'-tetrazolophenyl)benzyl]-1,2,4-triazole hemihydrate], the Kb in test [1] was 10000 nM. Take `CCCCCc1nc(SCc2ccc(-c3ccccc3C(=O)OC)cc2)n(Cc2ccc(-c3ccccc3C(=O)OC)cc2)n1` [Compound 21, 5-Pentyl-2,3-bis-[4-(2'-carbomethoxyphenyl)benzyl]mercapto-1,2,4-triazole]: the inhibition at 10 µM in test [1] worked out at 4%. On to `CCCCCc1nc(SCc2ccc(-c3ccccc3C(=O)O)cc2)n(Cc2ccc(-c3ccccc3C(=O)O)cc2)n1` [Compound 23, 5-Pentyl-2,3-bis-[4-(2'-carboxyphenyl)benzyl]mercapto-1,2,4-triazole], for which, in test [1], the pA2 is 7.19 and the inhibition at 10 µM stood at 100%. With `CCCCCCCc1nc(SCc2ccc(-c3ccccc3C(=O)OC)cc2)n(Cc2ccc(-c3ccccc3C(=O)OC)cc2)n1` [Compound 25, 5-Heptyl-2,3-bis-[4-(2'-carbomethoxyphenyl)benzyl]mercapto-1,2,4-triazole], the inhibition at 10 µM in test [1] is 1%. With `CCCCCCCc1nc(SCc2ccc(-c3ccccc3C(=O)O)cc2)n(Cc2ccc(-c3ccccc3C(=O)O)cc2)n1` [Compound 26], in test [1], the pA2 is 5.88 and the inhibition at 10 µM stood at 48%. As to `CCCCCCCCc1nc(S(=O)(=O)Cc2ccc(-c3ccccc3C(=O)O)cc2)nn1Cc1ccc(-c2ccccc2C(=O)O)cc1` [Compound 38, 1-[(2'-Carboxyphenyl)benzyl]-3-[(2'-carboxyphenyl)benzylsulfonyl]-5-octyl-1,2,4-triazole hydrate], in test [1], the Kb was 813 nM and the inhibition at 10 µM was 87%.

As for `CCCCCCCc1nc(S(=O)(=O)Cc2ccc(-c3ccccc3C(=O)O)cc2)nn1Cc1ccc(-c2ccccc2C(=O)O)cc1` [Compound 39, 1-[(2'-Carboxyphenyl)benzyl]-3-[(2'-carboxyphenyl)benzylsulfonyl]-5-heptyl-1,2,4-triazole hydrate], in test [1], the Kb is 324 nM and the inhibition at 10 µM turned out to be 89%. For `CCCCCCc1nc(S(=O)(=O)Cc2ccc(-c3ccccc3C(=O)O)cc2)nn1Cc1ccc(-c2ccccc2C(=O)O)cc1` [Compound 40, 1-[(2'-Carboxyphenyl)benzyl]-3-[(2'-carboxyphenyl)benzylsulfonyl]-5-hexyl-1,2,4-triazole 0.5 hydrate], in that order: 8.91 nM and 100%. Take `CCCCc1nc(Cl)c(CO)n1Cc1ccc(-c2ccccc2-c2nn[nH]n2)cc1` [DuP-753]: in the test on plasma renin activity, the “plasma renin activity (PRA)” value is reported as “about 41.4 ng angiotensin I/mL plasma/h”. In addition, the blood pressure change result in the test with angiotensin II receptor (normotensive rats that have not been salt-depleted) was “does not change”. Moreover, in the test on angiotensin II receptor (salt-depleted rats (furosemide, low sodium diet), typical response), the “blood pressure decrease (mean arterial pressure, MAP)” value is given as “about 35 mmHg”.

A word on the pA2: it is a measure of antagonist potency on a negative log scale.
